# Assay results published in patent US20020137929A1, “1 - (3-heterocyclylphenyl) isothiourea, -isourea, -guanidine and -amidine herbicidal agents” (Intellectual Property Department, BASF Aktiengesellschaft, priority 1998, published 2002).
# Experiments:
# [1] = test system: GLXMAW (Soybean, Williams); assay: Preemergence herbicidal evaluation; type: in vivo, Glycine max, (L.) Merr. cv Williams; conditions: rated 4-5 weeks after treatment
# Excerpt: (§1) Results of herbicide evaluation are expressed on a rating scale (0-9). The scale is based upon a visual observation of plant stand, vigor, malformation, size, chlorosis and overall plant appearance as compared with a control.
# (§2) The preemergence herbicidal activity of the test compounds of the present invention is exemplified by the following tests in which the seeds of a variety of monocotyledonous and dicotyledonous plants are separately mixed with potting soil and planted on top of approximately one inch of soil in separate pint cups. After planting, the cups are sprayed with the selected aqueous acetone solution containing test compound in sufficient quantity to provide the equivalent of about 0.0156 to 0.500 kg per hectare of test compound per cup. The treated cups are then placed on greenhouse benches, watered and cared for in accordance with conventional greenhouse procedures. From four to five weeks after treatment, the tests are terminated and each cup is examined and rated according to the rating system provided in Example 37.
# (§3) The compounds evaluated are reported by compound number given in Example 37.
# ORYSAT (Rice, Tebonnet) [2] = assay: Preemergence herbicidal evaluation; type: in vivo, Oryza sativa, (L.) Tebonnet; conditions: rated 4-5 weeks after treatment
# Excerpt: as §1, §2, §3
# SETVI (Foxtail, Green) = assay: Preemergence herbicidal evaluation; type: in vivo, Setaria viridis; conditions: rated 4-5 weeks after treatment
# Excerpt: as §1, §2, §3
# CASOB (Sicklepod) = assay: Postemergence herbicidal evaluation; type: in vivo, Cassia obtusifolia; conditions: postemergence
# Method in brief: (§4)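 Rate range approx. 0.0156–0.500 kg/ha. Foliar application at 40 psi to ~2-week seedlings; surfactant 0.5% TWEEN 20 in 50/50 acetone/water. Evaluation 4–5 wk post-treatment by 0–9 visual injury score, means of replicate tests.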
# CYPSE (Flatsedge) = assay: Preemergence weed control under flooded paddy conditions; type: in vivo, Cyperus serotinus; conditions: rated 3-4 weeks after treatment
# Method in brief: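 Herbicidal effect is scored visually on a 0-9 scale against an untreated control, three to four weeks after compounds are pipetted into the flood water (1.5 to 3 cm deep) over seeds planted in silt loam at 0.5 cm depth. Rates: about 0.0313 to 0.500 kg/ha.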
# AMBEL (Ragweed, Common) = assay: Preemergence herbicidal evaluation; type: in vivo, Ambrosia artemisifolia; conditions: rated 4-5 weeks after treatment
# Excerpt: as §1, §2, §3
# [3] = test system: CHEAL (Lambsquarters, Common); assay: Postemergence herbicidal evaluation; type: in vivo, Chenopodium album; conditions: postemergence
# Method in brief: as §4
# GALAP (Galium) = assay: Postemergence herbicidal evaluation; type: in vivo, Galium aparine; conditions: postemergence
# Method in brief: as §4
# ORYSAT (Rice, Tebonnet) [4] = assay: Postemergence herbicidal evaluation; type: in vivo, Oryza sativa, (L.) Tebonnet; conditions: postemergence
# Method in brief: as §4
# MOOVA (Monochoria) = assay: Preemergence weed control under flooded paddy conditions; type: in vivo, Monochoria vaginalis; conditions: rated 3-4 weeks after treatment
# Description: as §1
# Preemergence herbicidal activity under flooded paddy conditions is determined as follows: plant seeds or propagating organs are planted in the top 0.5 cm of silt loam soil in 32 oz. plastic containers with a diameter of 10.5 cm and no drainage holes. Water is added to these containers and maintained at 1.5 to 3 cm above the soil surface for the duration of the experiment. The test compounds are applied as aqueous/acetone mixtures 50/50 v/v pipetted directly into the flood water to give the equivalent of about 0.0313 to 0.500 kg/ha of active ingredient. The treated containers are placed on greenhouse benches and cared for in accordance with conventional greenhouse procedures. Three to four weeks after treatment, the test is terminated and each container is examined and herbicidal effect rated according to the rating system provided in Example 37. The compounds evaluated are reported by compound number given in Example 37.
# Plant species employed in this example are reported by header abbreviation, common name and scientific name.
# ZEAMX (Corn, Field) = assay: Postemergence herbicidal evaluation; type: in vivo, Zea mays; conditions: postemergence
# Method in brief: as §4
smiles,measurement,setting,value
"COC(=O)COC(=O)CN1C(=O)CSC1=Nc1cc(-n2c(=O)cc(C(F)(F)F)n(C)c2=O)c(F)cc1Cl [Compound 108, 2-{{2-Chloro-5-[3,6-dihydro-3-methyl-2,6-dioxo-4-(trifluoromethyl)-1(2H)-pyrimidinyl]-4-fluorophenyl}imino}-4-oxo-3-thiazolidineacetic acid, ester with methyl glycolate]",Preemergence herbicidal rating GLXMAW,[1]; rate 0.0156 kg/ha,0.0
same,Preemergence herbicidal rating GLXMAW,[1]; rate 0.0625 kg/ha,2.0
same,Preemergence herbicidal rating GLXMAW,[1]; rate 0.1250 kg/ha,2.0
same,Preemergence herbicidal rating GLXMAW,[1]; rate 0.2500 kg/ha,2.0
same,Preemergence herbicidal rating ORYSAT,"ORYSAT (Rice, Tebonnet) [2]; rate 0.0156 kg/ha",0.0
same,Preemergence herbicidal rating ORYSAT,"ORYSAT (Rice, Tebonnet) [2]; rate 0.0313 kg/ha",0.0
same,Preemergence herbicidal rating ORYSAT,"ORYSAT (Rice, Tebonnet) [2]; rate 0.0625 kg/ha",0.0
same,Preemergence herbicidal rating ORYSAT,"ORYSAT (Rice, Tebonnet) [2]; rate 0.1250 kg/ha",1.0
same,Preemergence herbicidal rating ORYSAT,"ORYSAT (Rice, Tebonnet) [2]; rate 0.2500 kg/ha",5.0
same,Preemergence herbicidal rating SETVI,"SETVI (Foxtail, Green); rate 0.0156 kg/ha",0.0
same,Preemergence herbicidal rating SETVI,"SETVI (Foxtail, Green); rate 0.0313 kg/ha",0.0
same,Preemergence herbicidal rating SETVI,"SETVI (Foxtail, Green); rate 0.0625 kg/ha",1.0
same,Preemergence herbicidal rating SETVI,"SETVI (Foxtail, Green); rate 0.1250 kg/ha",7.0
same,Preemergence herbicidal rating SETVI,"SETVI (Foxtail, Green); rate 0.2500 kg/ha",9.0
same,Herbicidal rating CASOB,CASOB (Sicklepod); rate 0.0158 kg/ha,1.0
same,Herbicidal rating CASOB,CASOB (Sicklepod); rate 0.0315 kg/ha,1.0
same,Herbicidal rating CASOB,CASOB (Sicklepod); rate 0.0630 kg/ha,1.0
same,CYPSE herbicidal effect rating,CYPSE (Flatsedge); 0.0313 kg/ha,0.0
same,CYPSE herbicidal effect rating,CYPSE (Flatsedge); 0.0625 kg/ha,0.0
same,CYPSE herbicidal effect rating,CYPSE (Flatsedge); 0.1250 kg/ha,0.0
same,Preemergence herbicidal rating AMBEL,"AMBEL (Ragweed, Common); rate 0.0156 kg/ha",0.0
same,Preemergence herbicidal rating AMBEL,"AMBEL (Ragweed, Common); rate 0.0313 kg/ha",0.0
same,Preemergence herbicidal rating AMBEL,"AMBEL (Ragweed, Common); rate 0.0625 kg/ha",0.0
same,Preemergence herbicidal rating AMBEL,"AMBEL (Ragweed, Common); rate 0.1250 kg/ha",0.0
same,Preemergence herbicidal rating AMBEL,"AMBEL (Ragweed, Common); rate 0.2500 kg/ha",1.0
same,Herbicidal rating CHEAL,[3]; rate 0.0158 kg/ha,4.0
same,Herbicidal rating CHEAL,[3]; rate 0.0315 kg/ha,7.0
same,Herbicidal rating CHEAL,[3]; rate 0.0630 kg/ha,9.0
same,Herbicidal rating GALAP,GALAP (Galium); rate 0.0158 kg/ha,1.0
same,Herbicidal rating GALAP,GALAP (Galium); rate 0.0315 kg/ha,1.0
same,Herbicidal rating GALAP,GALAP (Galium); rate 0.0630 kg/ha,3.0
same,Herbicidal rating ORYSAT,"ORYSAT (Rice, Tebonnet) [4]; rate 0.0158 kg/ha",3.0
same,Herbicidal rating ORYSAT,"ORYSAT (Rice, Tebonnet) [4]; rate 0.0315 kg/ha",3.0
same,Herbicidal rating ORYSAT,"ORYSAT (Rice, Tebonnet) [4]; rate 0.0630 kg/ha",3.5
same,MOOVA herbicidal effect rating,MOOVA (Monochoria); 0.0313 kg/ha,9.0
same,MOOVA herbicidal effect rating,MOOVA (Monochoria); 0.0625 kg/ha,9.0
same,MOOVA herbicidal effect rating,MOOVA (Monochoria); 0.1250 kg/ha,9.0
same,MOOVA herbicidal effect rating,MOOVA (Monochoria); 0.2500 kg/ha,9.0
same,Herbicidal rating ZEAMX,"ZEAMX (Corn, Field); rate 0.0158 kg/ha",5.0
same,Herbicidal rating ZEAMX,"ZEAMX (Corn, Field); rate 0.0315 kg/ha",6.0
same,Herbicidal rating ZEAMX,"ZEAMX (Corn, Field); rate 0.0630 kg/ha",6.5
